Reference: the NIST ThermoML archive (doi:10.1021/acs.jced.6b00121)

Assay: xn = mol fraction of the nth substance listed
Details: 100 kPa, Liquid; for viscosity: Falling or rolling sphere viscometry; for mass density: Vibrating tube method

CCCCCCCCCCC [undecane] + CCCCO
Details | mass density [kg/m3] | viscosity [mPa·s]
283.15 K, x1 = 0.1007 | 801.8 | 3.124
283.15 K, x1 = 0.2004 | 790.28 | 2.611
283.15 K, x1 = 0.299 | 781.12 | 2.24
283.15 K, x1 = 0.3981 | 773.6 | 1.939
283.15 K, x1 = 0.5006 | 767.02 | 1.722
283.15 K, x1 = 0.5964 | 761.98 | 1.582
283.15 K, x1 = 0.6982 | 757.32 | 1.471
283.15 K, x1 = 0.7979 | 753.51 | 1.416
283.15 K, x1 = 0.9 | 750.22 | 1.385
283.15 K, x1 = 1 | 747.78 | 1.371
288.15 K, x1 = 0.1007 | 798.03 | 2.731
288.15 K, x1 = 0.2004 | 786.48 | 2.294
288.15 K, x1 = 0.299 | 777.31 | 1.978
288.15 K, x1 = 0.3981 | 769.79 | 1.723
288.15 K, x1 = 0.5006 | 763.23 | 1.541
288.15 K, x1 = 0.5964 | 758.18 | 1.425
288.15 K, x1 = 0.6982 | 753.56 | 1.329
288.15 K, x1 = 0.7979 | 749.76 | 1.287
288.15 K, x1 = 0.9 | 746.49 | 1.26
288.15 K, x1 = 1 | 744.06 | 1.249
293.15 K, x1 = 0.1007 | 794.24 | 2.398
293.15 K, x1 = 0.2004 | 782.67 | 2.025
293.15 K, x1 = 0.299 | 773.49 | 1.755
293.15 K, x1 = 0.3981 | 765.96 | 1.54
293.15 K, x1 = 0.5006 | 759.41 | 1.387
293.15 K, x1 = 0.5964 | 754.38 | 1.29
293.15 K, x1 = 0.6982 | 749.77 | 1.212
293.15 K, x1 = 0.7979 | 746 | 1.176
293.15 K, x1 = 0.9 | 742.75 | 1.152
293.15 K, x1 = 1 | 740.35 | 1.145
298.15 K, x1 = 0.1007 | 790.42 | 2.115
298.15 K, x1 = 0.2004 | 778.83 | 1.795
298.15 K, x1 = 0.299 | 769.63 | 1.564
298.15 K, x1 = 0.3981 | 762.11 | 1.383
298.15 K, x1 = 0.5006 | 755.57 | 1.254
298.15 K, x1 = 0.5964 | 750.55 | 1.173
298.15 K, x1 = 0.6982 | 745.97 | 1.108
298.15 K, x1 = 0.7979 | 742.22 | 1.077
298.15 K, x1 = 0.9 | 739 | 1.058
298.15 K, x1 = 1 | 736.64 | 1.062
303.15 K, x1 = 0.1007 | 786.57 | 1.871
303.15 K, x1 = 0.2004 | 774.95 | 1.595
303.15 K, x1 = 0.299 | 765.75 | 1.392
303.15 K, x1 = 0.3981 | 758.22 | 1.248
303.15 K, x1 = 0.5006 | 751.7 | 1.139
303.15 K, x1 = 0.5964 | 746.69 | 1.071
303.15 K, x1 = 0.6982 | 742.14 | 1.016
303.15 K, x1 = 0.7979 | 738.42 | 0.991
303.15 K, x1 = 0.9 | 735.23 | 0.975
303.15 K, x1 = 1 | 732.93 | 0.982
308.15 K, x1 = 0.1007 | 782.69 | 1.663
308.15 K, x1 = 0.2004 | 771.05 | 1.426
308.15 K, x1 = 0.299 | 761.84 | 1.253
308.15 K, x1 = 0.3981 | 754.31 | 1.13
308.15 K, x1 = 0.5006 | 747.8 | 1.038
308.15 K, x1 = 0.5964 | 742.82 | 0.979
308.15 K, x1 = 0.6982 | 738.3 | 0.936
308.15 K, x1 = 0.7979 | 734.6 | 0.915
308.15 K, x1 = 0.9 | 731.45 | 0.902
308.15 K, x1 = 1 | 729.23 | 0.91
313.15 K, x1 = 0.1007 | 778.77 | 1.483
313.15 K, x1 = 0.2004 | 767.1 | 1.279
313.15 K, x1 = 0.299 | 757.88 | 1.131
313.15 K, x1 = 0.3981 | 750.36 | 1.028
313.15 K, x1 = 0.5006 | 743.87 | 0.95
313.15 K, x1 = 0.5964 | 738.91 | 0.901
313.15 K, x1 = 0.6982 | 734.42 | 0.864
313.15 K, x1 = 0.7979 | 730.76 | 0.847
313.15 K, x1 = 0.9 | 727.65 | 0.837
313.15 K, x1 = 1 | 725.53 | 0.847
318.15 K, x1 = 0.1007 | 774.8 | 1.326
318.15 K, x1 = 0.2004 | 763.11 | 1.152
318.15 K, x1 = 0.299 | 753.88 | 1.026
318.15 K, x1 = 0.3981 | 746.37 | 0.938
318.15 K, x1 = 0.5006 | 739.91 | 0.882
318.15 K, x1 = 0.5964 | 734.97 | 0.832
318.15 K, x1 = 0.6982 | 730.51 | 0.801
318.15 K, x1 = 0.7979 | 726.89 | 0.787
318.15 K, x1 = 0.9 | 723.83 | 0.779
318.15 K, x1 = 1 | 721.82 | 0.79
323.15 K, x1 = 0.1007 | 770.78 | 1.192
323.15 K, x1 = 0.2004 | 759.07 | 1.042
323.15 K, x1 = 0.299 | 749.84 | 0.934
323.15 K, x1 = 0.3981 | 742.34 | 0.858
323.15 K, x1 = 0.5006 | 735.91 | 0.804
323.15 K, x1 = 0.5964 | 731 | 0.771
323.15 K, x1 = 0.6982 | 726.58 | 0.749
323.15 K, x1 = 0.7979 | 722.99 | 0.733
323.15 K, x1 = 0.9 | 719.99 | 0.727
323.15 K, x1 = 1 | 718.11 | 0.74
328.15 K, x1 = 0.1007 | 766.71 | 1.074
328.15 K, x1 = 0.2004 | 754.97 | 0.945
328.15 K, x1 = 0.299 | 745.75 | 0.853
328.15 K, x1 = 0.3981 | 738.26 | 0.79
328.15 K, x1 = 0.5006 | 731.86 | 0.744
328.15 K, x1 = 0.5964 | 726.99 | 0.716
328.15 K, x1 = 0.6982 | 722.61 | 0.693
328.15 K, x1 = 0.7979 | 719.07 | 0.685
328.15 K, x1 = 0.9 | 716.13 | 0.68
328.15 K, x1 = 1 | 714.39 | 0.692
333.15 K, x1 = 0.1007 | 762.58 | 0.974
333.15 K, x1 = 0.2004 | 750.83 | 0.86
333.15 K, x1 = 0.299 | 741.61 | 0.782
333.15 K, x1 = 0.3981 | 734.14 | 0.729
333.15 K, x1 = 0.5006 | 727.78 | 0.69
333.15 K, x1 = 0.5964 | 722.94 | 0.667
333.15 K, x1 = 0.6982 | 718.61 | 0.647
333.15 K, x1 = 0.7979 | 715.12 | 0.641
333.15 K, x1 = 0.9 | 712.24 | 0.638
333.15 K, x1 = 1 | 710.68 | 0.651
338.15 K, x1 = 0.1007 | 758.39 | 0.882
338.15 K, x1 = 0.2004 | 746.61 | 0.785
338.15 K, x1 = 0.299 | 737.42 | 0.719
338.15 K, x1 = 0.3981 | 729.97 | 0.675
338.15 K, x1 = 0.5006 | 723.65 | 0.641
338.15 K, x1 = 0.5964 | 718.86 | 0.622
338.15 K, x1 = 0.6982 | 714.57 | 0.606
338.15 K, x1 = 0.7979 | 711.13 | 0.602
338.15 K, x1 = 0.9 | 708.34 | 0.601
338.15 K, x1 = 1 | 706.95 | 0.615
343.15 K, x1 = 0.1007 | 754.12 | 0.802
343.15 K, x1 = 0.2004 | 742.34 | 0.72
343.15 K, x1 = 0.299 | 733.15 | 0.663
343.15 K, x1 = 0.3981 | 725.75 | 0.626
343.15 K, x1 = 0.5006 | 719.48 | 0.598
343.15 K, x1 = 0.5964 | 714.72 | 0.582
343.15 K, x1 = 0.6982 | 710.49 | 0.569
343.15 K, x1 = 0.7979 | 707.12 | 0.566
343.15 K, x1 = 0.9 | 704.41 | 0.567
343.15 K, x1 = 1 | 703.22 | 0.58
348.15 K, x1 = 0.1007 | 749.78 | 0.732
348.15 K, x1 = 0.2004 | 738.01 | 0.662
348.15 K, x1 = 0.299 | 728.84 | 0.614
348.15 K, x1 = 0.3981 | 721.47 | 0.583
348.15 K, x1 = 0.5006 | 715.24 | 0.56
348.15 K, x1 = 0.5964 | 710.54 | 0.546
348.15 K, x1 = 0.6982 | 706.38 | 0.535
348.15 K, x1 = 0.7979 | 703.07 | 0.534
348.15 K, x1 = 0.9 | 700.47 | 0.536
348.15 K, x1 = 1 | 699.47 | 0.549
353.15 K, x1 = 0.1007 | 745.37 | 0.671
353.15 K, x1 = 0.2004 | 733.6 | 0.611
353.15 K, x1 = 0.299 | 724.46 | 0.57
353.15 K, x1 = 0.3981 | 717.14 | 0.544
353.15 K, x1 = 0.5006 | 710.97 | 0.525
353.15 K, x1 = 0.5964 | 706.32 | 0.514
353.15 K, x1 = 0.6982 | 702.22 | 0.506
353.15 K, x1 = 0.7979 | 698.99 | 0.505
353.15 K, x1 = 0.9 | 696.51 | 0.508
353.15 K, x1 = 1 | 695.72 | 0.522
358.15 K, x1 = 0.1007 | 740.87 | 0.617
358.15 K, x1 = 0.2004 | 729.1 | 0.565
358.15 K, x1 = 0.299 | 720.01 | 0.531
358.15 K, x1 = 0.3981 | 712.73 | 0.51
358.15 K, x1 = 0.5006 | 706.63 | 0.493
358.15 K, x1 = 0.5964 | 702.04 | 0.485
358.15 K, x1 = 0.6982 | 698.02 | 0.477
358.15 K, x1 = 0.7979 | 694.88 | 0.479
358.15 K, x1 = 0.9 | 692.52 | 0.483
358.15 K, x1 = 1 | 691.96 | 0.497
363.15 K, x1 = 0.1007 | 736.28 | 0.569
363.15 K, x1 = 0.2004 | 724.55 | 0.525
363.15 K, x1 = 0.299 | 715.49 | 0.497
363.15 K, x1 = 0.3981 | 708.28 | 0.479
363.15 K, x1 = 0.5006 | 702.24 | 0.465
363.15 K, x1 = 0.5964 | 697.72 | 0.458
363.15 K, x1 = 0.6982 | 693.78 | 0.452
363.15 K, x1 = 0.7979 | 690.73 | 0.455
363.15 K, x1 = 0.9 | 688.52 | 0.46
363.15 K, x1 = 1 | 688.18 | 0.475
